Measured values published in the supplement of paper PMC10307832.

Tests used:
Test in all cases: relative viability (nuclei count vs DMSO), 5 days (fraction); higher = more cells survive
NCI-H1944 = system: NCI-H1944
Method in brief: (§1)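 Dosing by pin tool came one day after lung cancer cell lines were seeded in 1536-well plates, using either one drug or a fixed anchor-drug dose plus five library-drug doses (not always all listed) in √10 steps. After 5 days, nuclei were counted on 4× images. Relative viability is treated-well nuclei count divided by vehicle-well nuclei count, and values are medians of duplicate plates.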

NCI-H520 = system: NCI-H520
Method in brief: as §1

PC-14 = system: PC-14
Method in brief: as §1

NCI-H2228 = system: NCI-H2228
Method in brief: as §1

NCI-H838 = system: NCI-H838
Method in brief: as §1

CAL-12T = system: CAL-12T
Method in brief: as §1

NCI-H1395 = system: NCI-H1395
Method in brief: as §1

NCI-H647 = system: NCI-H647
Method in brief: as §1

NCI-H1993 = system: NCI-H1993
Method in brief: as §1

NCI-H661 = system: NCI-H661
Method in brief: as §1

SK-LU-1 = system: SK-LU-1
Method in brief: as §1

NCI-H1734 = system: NCI-H1734
Method in brief: as §1

HCC-366 = system: HCC-366
Method in brief: as §1

H3255 = system: H3255
Method in brief: as §1

NCI-H1975 = system: NCI-H1975
Method in brief: as §1

LU99A = system: LU99A
Method in brief: as §1

PC-3 [JPC-3] = system: PC-3 [JPC-3]
Method in brief: as §1

NCI-H1666 = system: NCI-H1666
Method in brief: as §1

HARA = system: HARA
Method in brief: as §1

HCC-15 = system: HCC-15
Method in brief: as §1

COR-L 105 = system: COR-L 105
Method in brief: as §1

NCI-H3122 = system: NCI-H3122
Method in brief: as §1

LC-2-ad = system: LC-2-ad
Method in brief: as §1

Q: Which results are given for `O=C(O)CCCCC(CCSCc1ccccc1)SCc1ccccc1` (stereo not given) [CPI-613] + Cc1nc(NC(=O)N2CCC[C@H]2C(N)=O)sc1-c1ccnc(C(C)(C)C(F)(F)F)c1 [Alpelisib] (partner 2 µM)?
A: relative viability (NCI-H1944; first compound 5 µM): 0.841; relative viability (NCI-H1944; first compound 15.81 µM): 0.843; relative viability (NCI-H1944; first compound 50 µM): 0.778; relative viability (NCI-H1944; first compound 158.11 µM): 0.803; relative viability (NCI-H1944; first compound 500 µM): 0.743; relative viability (NCI-H520; first compound 5 µM): 0.731; relative viability (NCI-H520; first compound 15.81 µM): 1.01; relative viability (NCI-H520; first compound 50 µM): 0.845; relative viability (NCI-H520; first compound 158.11 µM): 0.403; relative viability (NCI-H520; first compound 500 µM): 0.112; relative viability (PC-14; first compound 5 µM): 0.97; relative viability (PC-14; first compound 15.81 µM): 0.884; relative viability (PC-14; first compound 50 µM): 0.849; relative viability (PC-14; first compound 158.11 µM): 1.01; relative viability (PC-14; first compound 500 µM): 0.863; relative viability (NCI-H2228; first compound 5 µM): 0.799; relative viability (NCI-H2228; first compound 15.81 µM): 0.6; relative viability (NCI-H2228; first compound 50 µM): 0.547; relative viability (NCI-H2228; first compound 158.11 µM): 0.344; relative viability (NCI-H2228; first compound 500 µM): 0.0239; relative viability (NCI-H838; first compound 5 µM): 0.979; relative viability (NCI-H838; first compound 15.81 µM): 0.922; relative viability (NCI-H838; first compound 50 µM): 0.91; relative viability (NCI-H838; first compound 158.11 µM): 0.589; relative viability (NCI-H838; first compound 500 µM): 0.0842; relative viability (CAL-12T; first compound 5 µM): 1; relative viability (CAL-12T; first compound 15.81 µM): 1.11; relative viability (CAL-12T; first compound 50 µM): 1.14; relative viability (CAL-12T; first compound 158.11 µM): 0.0352; relative viability (CAL-12T; first compound 500 µM): 0.0082; relative viability (NCI-H1395; first compound 5 µM): 0.988; relative viability (NCI-H1395; first compound 15.81 µM): 1.08; relative viability (NCI-H1395; first compound 50 µM): 1.27; relative viability (NCI-H1395; first compound 158.11 µM): 0.99; relative viability (NCI-H1395; first compound 500 µM): 0.75; relative viability (NCI-H647; first compound 5 µM): 1.19; relative viability (NCI-H647; first compound 15.81 µM): 0.968; relative viability (NCI-H647; first compound 50 µM): 0.769; relative viability (NCI-H647; first compound 158.11 µM): 0.0933; relative viability (NCI-H647; first compound 500 µM): 0.0159; relative viability (NCI-H1993; first compound 5 µM): 0.709; relative viability (NCI-H1993; first compound 15.81 µM): 0.721; relative viability (NCI-H1993; first compound 50 µM): 0.752; relative viability (NCI-H1993; first compound 158.11 µM): 0.485; relative viability (NCI-H1993; first compound 500 µM): 0.432; relative viability (NCI-H661; first compound 5 µM): 0.68; relative viability (NCI-H661; first compound 15.81 µM): 0.515; relative viability (NCI-H661; first compound 50 µM): 0.939; relative viability (NCI-H661; first compound 158.11 µM): 0.594; relative viability (NCI-H661; first compound 500 µM): 0.608; relative viability (SK-LU-1; first compound 5 µM): 1.05; relative viability (SK-LU-1; first compound 15.81 µM): 0.849; relative viability (SK-LU-1; first compound 50 µM): 0.57; relative viability (SK-LU-1; first compound 158.11 µM): 0.175; relative viability (SK-LU-1; first compound 500 µM): 0.114; relative viability (NCI-H1734; first compound 5 µM): 0.629; relative viability (NCI-H1734; first compound 15.81 µM): 0.694; relative viability (NCI-H1734; first compound 50 µM): 0.625; relative viability (NCI-H1734; first compound 158.11 µM): 0.493; relative viability (NCI-H1734; first compound 500 µM): 0.098; relative viability (HCC-366; first compound 5 µM): 0.322; relative viability (HCC-366; first compound 15.81 µM): 0.373; relative viability (HCC-366; first compound 50 µM): 0.441; relative viability (HCC-366; first compound 158.11 µM): 0.355; relative viability (HCC-366; first compound 500 µM): 0.0061; relative viability (H3255; first compound 5 µM): 0.695; relative viability (H3255; first compound 15.81 µM): 0.576; relative viability (H3255; first compound 50 µM): 0.695; relative viability (H3255; first compound 158.11 µM): 0.639; relative viability (H3255; first compound 500 µM): 0.672; relative viability (NCI-H1975; first compound 5 µM): 0.542; relative viability (NCI-H1975; first compound 15.81 µM): 0.655; relative viability (NCI-H1975; first compound 50 µM): 0.692; relative viability (NCI-H1975; first compound 158.11 µM): 0.327; relative viability (NCI-H1975; first compound 500 µM): 0.0528; relative viability (LU99A; first compound 5 µM): 0.535; relative viability (LU99A; first compound 15.81 µM): 0.51; relative viability (LU99A; first compound 50 µM): 0.461; relative viability (LU99A; first compound 158.11 µM): 0.227; relative viability (LU99A; first compound 500 µM): 0.0551; relative viability (PC-3 [JPC-3]; first compound 5 µM): 1.05; relative viability (PC-3 [JPC-3]; first compound 15.81 µM): 0.943; relative viability (PC-3 [JPC-3]; first compound 50 µM): 0.934; relative viability (PC-3 [JPC-3]; first compound 158.11 µM): 0.921; relative viability (PC-3 [JPC-3]; first compound 500 µM): 0.903; relative viability (NCI-H1666; first compound 5 µM): 0.935; relative viability (NCI-H1666; first compound 15.81 µM): 0.896; relative viability (NCI-H1666; first compound 50 µM): 1.27; relative viability (NCI-H1666; first compound 158.11 µM): 0.158; relative viability (NCI-H1666; first compound 500 µM): 0.138; relative viability (HARA; first compound 5 µM): 0.856; relative viability (HARA; first compound 15.81 µM): 0.681; relative viability (HARA; first compound 50 µM): 0.942; relative viability (HARA; first compound 158.11 µM): 0.401; relative viability (HARA; first compound 500 µM): 0.0463; relative viability (HCC-15; first compound 5 µM): 0.942; relative viability (HCC-15; first compound 15.81 µM): 0.805; relative viability (HCC-15; first compound 50 µM): 0.828; relative viability (HCC-15; first compound 158.11 µM): 0.562; relative viability (HCC-15; first compound 500 µM): 0.35; relative viability (COR-L 105; first compound 5 µM): 0.888; relative viability (COR-L 105; first compound 15.81 µM): 1.11; relative viability (COR-L 105; first compound 50 µM): 0.909; relative viability (COR-L 105; first compound 158.11 µM): 0.476; relative viability (COR-L 105; first compound 500 µM): 0.161; relative viability (NCI-H3122; first compound 5 µM): 0.638; relative viability (NCI-H3122; first compound 15.81 µM): 0.751; relative viability (NCI-H3122; first compound 50 µM): 0.715; relative viability (NCI-H3122; first compound 158.11 µM): 0.528; relative viability (NCI-H3122; first compound 500 µM): 0.0415; relative viability (LC-2-ad; first compound 5 µM): 0.83; relative viability (LC-2-ad; first compound 15.81 µM): 0.818; relative viability (LC-2-ad; first compound 50 µM): 0.8; relative viability (LC-2-ad; first compound 158.11 µM): 0.201; relative viability (LC-2-ad; first compound 500 µM): 0.006
